Measurements: paper PMC8963254, “Effects of Lysine N-ζ-Methylation in Ultrashort Tetrabasic Lipopeptides (UTBLPs) on the Potentiation of Rifampicin, Novobiocin, and Niclosamide in Gram-Negative Bacteria” (Antibiotics, 2022)
≈ marks a conversion by molar mass, not a printed value.

Tests used:
Experiment in all cases: microbe, parasite or virus in culture
[1] = tested on: P. aeruginosa PA259-96196; type: cell-based, Pseudomonas aeruginosa; conditions: P. aeruginosa 259-96196; for MIC: Pseudomonas aeruginosa, PA25996196, 18 h, read-out: MICs of various antibiotics
Procedure: (§1) The in vitro antibacterial activity of the UTBLPs was assessed against wild-type and clinically isolated bacterial strains. To obtain the MIC of the compounds, the microbroth dilution susceptibility assay was performed according to the Clinical and Laboratory Standards Institute (CLSI, Wayne, PA, USA) guidelines and as previously described. Briefly, the compounds at varying concentrations were incubated with bacterial inoculum (5 × 10^5 CFU/mL final concentration) at 37 °C for 18 h. Growth in the form of turbidity was confirmed using an EMax Plus microplate reader (Molecular Devices, San Jose, CA, USA) at 590 nm.

[2] = tested on: P. aeruginosa PA262-101856; type: cell-based, Pseudomonas aeruginosa; conditions: P. aeruginosa 262-101856; for MIC: Pseudomonas aeruginosa, PA262101856, 18 h, read-out: MICs of various antibiotics
Procedure: as §1

A. baumannii AB027 = type: cell-based, Acinetobacter baumannii; conditions: A. baumannii AB027; for MIC: Acinetobacter baumannii, 18 h, read-out: MICs of various antibiotics
Procedure: as §1

A. baumannii AB92247 = type: cell-based, Acinetobacter baumannii; conditions: A. baumannii 92247; for MIC: Acinetobacter baumannii, AB92247, 18 h, read-out: MICs of various antibiotics
Procedure: as §1

E. coli 94393 = type: cell-based, Escherichia coli; conditions: E. coli 94393 (mcr-1 +); for MIC: Escherichia coli, 18 h, read-out: MICs of various antibiotics
Procedure: as §1

E. coli 94474 = type: cell-based, Escherichia coli; conditions: E. coli 94474 (mcr-1 +); for MIC: Escherichia coli, 18 h, read-out: MICs of various antibiotics
Procedure: as §1

E. cloacae 118564 = type: cell-based, Enterobacter cloacae; conditions: E. cloacae 118564; for MIC: Enterobacter cloacae, 18 h, read-out: MICs of various antibiotics
Procedure: as §1

K. pneumoniae 113250 = type: cell-based, Klebsiella pneumoniae; conditions: K. pneumoniae 113250; for MIC: Klebsiella pneumoniae, 18 h, read-out: MICs of various antibiotics
Procedure: as §1

Compound | MIC [1] [µg/mL] | MIC [2] [µg/mL] | MIC (A. baumannii AB027) [µg/mL] | MIC (A. baumannii AB92247) [µg/mL] | MIC (E. coli 94393) [µg/mL] | MIC (E. coli 94474) [µg/mL] | MIC (E. cloacae 118564) [µg/mL] | MIC (K. pneumoniae 113250) [µg/mL] | MICs of various antibiotics [1] [µg/mL] | MICs of various antibiotics [2] [µg/mL] | MICs of various antibiotics (A. baumannii AB027) [µg/mL] | MICs of various antibiotics (A. baumannii AB92247) [µg/mL] | MICs of various antibiotics (E. coli 94393) [µg/mL] | MICs of various antibiotics (E. coli 94474) [µg/mL] | MICs of various antibiotics (E. cloacae 118564) [µg/mL] | MICs of various antibiotics (K. pneumoniae 113250) [µg/mL]
NCC[C@H](O)C(=O)N[C@@H]1C[C@H](N)[C@@H](O[C@H]2O[C@H](CN)[C@@H](O)[C@H](O)[C@H]2O)[C@H](O)[C@H]1O[C@H]1O[C@H](CO)[C@@H](O)[C@H](N)[C@H]1O [AMK, amikacin] | > 64 | > 64 | > 64 | < 1 | 2 (≈ 3.42 µM) | 2 (≈ 3.42 µM) | 2 (≈ 3.42 µM) | ≤ 1 | – | – | – | – | – | – | – | –
Cc1nnc(SCC2=C(C(=O)O)N3C(=O)[C@@H](NC(=O)Cn4cnnn4)[C@H]3SC2)s1 [CFZ, cefazolin] | > 128 | > 128 | > 128 | 128 (≈ 282 µM) | 1 (≈ 2.2 µM) | 4 (≈ 8.8 µM) | > 128 | 1 (≈ 2.2 µM) | – | – | – | – | – | – | – | –
CO/N=C(\C(=O)N[C@@H]1C(=O)N2C(C(=O)[O-])=C(C[N+]3(C)CCCC3)CS[C@H]12)c1csc(N)n1 [CPM, cefepime] | > 64 | 32 (≈ 66.6 µM) | > 128 | 4 (≈ 8.32 µM) | ≤ 0.25 | ≤ 0.25 | 0.25 (≈ 0.52 µM) | 1 (≈ 2.08 µM) | – | – | – | – | – | – | – | –
CO[C@@]1(NC(=O)Cc2cccs2)C(=O)N2C(C(=O)O)=C(COC(N)=O)CS[C@@H]21 [FOX, cefoxitin] | > 32 | > 32 | – | 32 (≈ 74.9 µM) | 4 (≈ 9.36 µM) | 16 (≈ 37.4 µM) | > 32 | 1 (≈ 2.34 µM) | – | – | – | – | – | – | – | –
C[C@@H](O)[C@H]1C(=O)N2C(C(=O)O)=C(S[C@@H]3CN[C@H](C(=O)N(C)C)C3)[C@H](C)[C@H]12 [MER, meropenem] | 1020 (≈ 2670 µM) | 32 (≈ 83.4 µM) | 16 (≈ 41.7 µM) | 4 (≈ 10.4 µM) | ≤ 0.03 | ≤ 0.03 | 0.12 (≈ 0.313 µM) | ≤ 0.03 | – | – | – | – | – | – | – | –
colistin [CST] | – | – | – | – | – | – | – | – | 1 | 1 | 0.25 | 4 | 4 | 16 | > 16 | > 16
